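Five concentrations, 48 hours, 96-well plates. TGI: concentration producing complete growth inhibition.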
Assays:
Assay in all cases: NCI anticancer screen, dose series, 48 h
[1] = test system: DLD-1 colon
[2] = test system: NCI-H522 lung
[3] = test system: HT29 colon
[4] = test system: MOLT-4 leukemia
[5] = test system: SK-MEL-2 melanoma
[6] = test system: UACC-257 melanoma
[7] = test system: IGROV1 ovarian
[8] = test system: SNB-75 CNS
[9] = test system: SF-295 CNS
[10] = test system: SK-MEL-28 melanoma
[11] = test system: OVCAR-5 ovarian
[12] = test system: HCC-2998 colon
[13] = test system: UO-31 renal
[14] = test system: SNB-19 CNS
[15] = test system: EKVX NSCLC
[16] = test system: SN12C renal
[17] = test system: KM12 colon
[18] = test system: LXFL 529 NSCLC
[19] = test system: RXF 393 renal
[20] = test system: OVCAR-8 ovarian
[21] = test system: HCT-15 colon
[22] = test system: A549 NSCLC
[23] = test system: CCRF-CEM leukemia
[24] = test system: TK-10 renal
[25] = test system: HCT-116 colon
[26] = test system: UACC-62 melanoma
[27] = test system: DMS 114 small cell lung
[28] = test system: LOX IMVI melanoma
[29] = test system: ACHN renal
[30] = test system: HL-60(TB) leukemia
[31] = test system: MALME-3M melanoma
[32] = test system: OVCAR-3 ovarian
[33] = test system: KM20L2 colon
[34] = test system: COLO 205 colon
[35] = test system: SK-MEL-5 melanoma
[36] = test system: HOP-18 NSCLC
[37] = test system: 786-0 renal
[38] = test system: A498 renal
[39] = test system: SF-268 CNS
[40] = test system: K-562 leukemia
[41] = test system: M14 melanoma
[42] = test system: RPMI-8226 leukemia
[43] = test system: HOP-92 NSCLC
[44] = test system: SF-539 CNS
[45] = test system: RXF-631 renal
[46] = test system: U251 CNS
[47] = test system: NCI-H23 lung
[48] = test system: SNB-78 CNS
[49] = test system: NCI-H460 lung
[50] = test system: HOP-62 NSCLC
[51] = test system: NCI-H226 lung
[52] = test system: OVCAR-4 ovarian
[53] = test system: SK-OV-3 ovarian
[54] = test system: M19-MEL melanoma
[55] = test system: SR leukemia
[56] = test system: DMS 273 small cell lung
[57] = test system: SW-620 colon
[58] = test system: XF 498 CNS

CC1=C(C(=O)Nc2cccc(Cl)c2)C(c2ccc([N+](=O)[O-])cc2)C(C(=O)Nc2cccc(Cl)c2)=C(C)N1
TGI [1]: > 100 µM
TGI [2]: 89.9 µM
TGI [3]: 35 µM
TGI [4]: 56.2 µM
TGI [5]: 32.9 µM
TGI [6]: 38.2 µM
TGI [7]: > 100 µM
TGI [8]: 91.1 µM
TGI [9]: 58.4 µM
TGI [10]: > 100 µM
TGI [11]: > 100 µM
TGI [12]: 48.2 µM
TGI [13]: 65.4 µM
TGI [14]: > 100 µM
TGI [15]: > 100 µM
TGI [16]: 75.8 µM
TGI [17]: 52.9 µM
TGI [18]: > 100 µM
TGI [19]: 58.7 µM
TGI [20]: > 100 µM
TGI [21]: 79.8 µM
TGI [22]: > 100 µM
TGI [23]: > 100 µM
TGI [24]: > 100 µM
TGI [25]: 71.9 µM
TGI [26]: 37.2 µM
TGI [27]: > 100 µM
TGI [28]: 28.8 µM
TGI [29]: 97.9 µM
TGI [30]: 47.4 µM
TGI [31]: 59.5 µM
TGI [32]: 85.3 µM
TGI [33]: 54.4 µM
TGI [34]: > 100 µM
TGI [35]: 33.8 µM
TGI [36]: 56.7 µM
TGI [37]: 69.6 µM
TGI [38]: > 100 µM
TGI [39]: > 100 µM
TGI [40]: > 100 µM
TGI [41]: 42.1 µM
TGI [42]: 83.4 µM
TGI [43]: 31.1 µM
TGI [44]: > 100 µM
TGI [45]: 57.6 µM
TGI [46]: 56 µM
TGI [47]: 62.3 µM
TGI [48]: > 100 µM
TGI [49]: 50.4 µM
TGI [50]: > 100 µM
TGI [51]: 84.5 µM
TGI [52]: > 100 µM
TGI [53]: 48.9 µM

CCn1c2ccccc2c2ccc3c(c21)C(=O)c1ccccc1C3=O
TGI [54]: 60.6 µM
TGI [1]: > 100 µM
TGI [2]: > 100 µM
TGI [3]: > 100 µM
TGI [4]: > 100 µM
TGI [6]: > 100 µM
TGI [7]: > 100 µM
TGI [55]: > 100 µM
TGI [8]: > 100 µM
TGI [9]: > 100 µM
TGI [10]: > 100 µM
TGI [12]: > 100 µM
TGI [13]: > 100 µM
TGI [14]: > 100 µM
TGI [15]: > 100 µM
TGI [16]: > 100 µM
TGI [18]: > 100 µM
TGI [19]: > 100 µM
TGI [20]: > 100 µM
TGI [21]: > 100 µM
TGI [22]: > 100 µM
TGI [23]: > 100 µM
TGI [25]: > 100 µM
TGI [26]: > 100 µM
TGI [27]: > 100 µM
TGI [29]: > 100 µM
TGI [30]: > 100 µM
TGI [31]: > 100 µM
TGI [56]: > 100 µM
TGI [33]: > 100 µM
TGI [34]: > 100 µM
TGI [35]: > 100 µM
TGI [36]: > 100 µM
TGI [37]: > 100 µM
TGI [57]: > 100 µM
TGI [38]: > 100 µM
TGI [39]: > 100 µM
TGI [40]: > 100 µM
TGI [41]: > 100 µM
TGI [58]: > 100 µM
TGI [42]: > 100 µM
TGI [43]: > 100 µM
TGI [44]: > 100 µM
TGI [46]: > 100 µM
TGI [47]: > 100 µM
TGI [48]: > 100 µM
TGI [50]: > 100 µM
TGI [51]: > 100 µM
TGI [52]: > 100 µM
TGI [53]: > 100 µM

Reference: PubChem BioAssay (NCI)
